In article PMC7590976, “Detection of Active Granzyme A in NK92 Cells with Fluorescent Activity-Based Probe” (Journal of Medicinal Chemistry, 2020):
“And” between values parts separate entries of the source, which are not always exact repeats. Equal values may be shown once. “Also recorded” adds a separate entry of the source. Non-standard residues stand in square brackets, D forms with d. *: point of attachment. Oic = O=C(O)[C@@H]1C[C@@H]2CCCC[C@@H]2N1; ACC = NC(=O)Cc1cc(=O)oc2cc(N*)ccc12; Tic = O=C(O)[C@@H]1Cc2ccccc2CN1

What was measured:
[1] = target: T1, GrA (Homo sapiens, UniProt P12544); experiment: Steady-state Michaelis–Menten kinetics of fluorogenic ACC substrates with GrA; type: biochemical
T1 construct: made in house; host or cells: Pichia pastoris
T1 sequence (P12544 29-262): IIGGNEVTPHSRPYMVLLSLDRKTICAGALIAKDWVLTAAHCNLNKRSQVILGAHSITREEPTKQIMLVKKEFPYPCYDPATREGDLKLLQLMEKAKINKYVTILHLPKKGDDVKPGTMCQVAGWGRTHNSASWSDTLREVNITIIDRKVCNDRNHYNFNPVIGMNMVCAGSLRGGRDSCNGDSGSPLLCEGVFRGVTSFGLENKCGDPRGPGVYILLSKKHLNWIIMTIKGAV
Excerpt: All chemical and biological reagents were purchased from commercial suppliers and used without further purification. The following reagents for solid phase peptide synthesis, Rink Amide RA resin (particle size 200–300 mesh, loading 0.74 mmol/g), 2-chlorotrityl chloride resin, Fmoc-protected amino acids, biotin, 1-[bis(dimethylamino)methylene]-1H-1,2,3-triazolo[4,5-b] pyridinium 3-oxid hexafluorophosphate (HATU), piperidine, diisopropylcarbodiimide (DICI), and trifluoroacetic acid (TFA), were purchased from Iris Biotech GmbH (Marktredwitz, Germany); anhydrous N-hydroxybenzotriazole (HOBt, purity >98%) was purchased from Creosauls; 2,4,6-collidine (2,4,6-trimethylpyridine), HPLC pure acetonitrile, and triisopropylsilane (TIPS) were purchased from Sigma-Aldrich (Poznan, Poland); and N,N-diisopropylethylamie (DIPEA) was purchased from VWR International (Gdansk, Poland). Solvents such as N,N-dimethylformamide (DMF), dichloromethane (DCM), methanol (MeOH), diethyl ether (Et2O), and acetic acid (AcOH) were purchased from Avantor (Gliwice, Poland). Cy5 was purchased from Lumiprobe GmbH (Hannover, Germany). Human neutrophil elastase was purchased from BioCentrum (Kraków, Poland) and proteinase 3 from Athens Research Technology (Athens, USA). Anti-GrA antibody (rabbit, monoclonal, ab209205) was obtained from Abcam (Cambridge, Great Britain). All cell lines were purchased from DSMZ (Braunschweig, Germany) or ATCC (Manassas, USA). All kinetic assays were performed using a Spectra Max Gemini XPS spectrofluorometer (Molecular Devices) on 96-well Corning plates. The parameters of the process were as follows: 37 °C; excitation/emission wavelength, 355/460 nm; cutoff, 455 nm; varying concentrations of substrates and enzyme. All measurements were performed in duplicate, and the data represent the average of these repetitions

[2] = target: T2, GrK (Homo sapiens, UniProt P49863); experiment: GrA substrate selectivity testing on GrK; type: biochemical; settings: 488 nM GrK
T2 construct: made in house; host or cells: Pichia pastoris
T2 sequence (P49863 27-264): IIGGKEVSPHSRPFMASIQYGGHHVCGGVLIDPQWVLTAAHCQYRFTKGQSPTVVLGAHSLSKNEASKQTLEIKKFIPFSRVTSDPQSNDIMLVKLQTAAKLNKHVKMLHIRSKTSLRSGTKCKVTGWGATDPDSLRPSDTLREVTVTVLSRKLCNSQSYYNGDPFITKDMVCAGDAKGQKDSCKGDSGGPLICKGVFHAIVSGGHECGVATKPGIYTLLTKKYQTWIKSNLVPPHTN
Excerpt: (§1) Since GrA and GrK are the most structurally similar Grs, they may recognize and hydrolyze the same natural and synthetic substrates. Therefore, we tested whether our new GrA substrates are also recognized by GrK or GrB (Figure 3A). For this experiment, we screened substrates SK8 to SK28 and a GrKref substrate (Ac-Tyr-Arg-Phe-Lys-ACC) or GrBref substrate (Ac-Ile-Glu-Pro-Asp-ACC) at the same concentration using a plate reader, and we monitored the increase in fluorescence over time. The linear portions of the diagram were analyzed, and as we expected, the majority of the substrates were well recognized by GrK, even better than their recognition by GrA. […] Based on that, we concluded that Tic-Gly-Oic-Arg is a leading sequence for a specific potent inhibitor and ABP for GrA.
(§2) Figure 3 (A) GrA substrate selectivity testing on GrK and GrB. Substrates SK8–SK28 and the reference GrK and GrB substrates were placed in a 96-well plate at a concentration of 200 μM and treated with GrK or GrB. […] Data present the average of 2 replicates as adjusted RFU/s.
(§3) Figure S2. Selectivity of SK15 substrate toward selected serine proteases (GrA, GrB, GrM, GrK,
(§4) PR3, and hNE). The reference substrates were as follows: Ac-Ile-Gly-Pro-Arg-ACC for GrA, Ac -Tyr-
Arg-Phe-Lys-ACC for GrK, Ac-Ile-Glu-Pro-Asp-ACC for GrB, Ac-Lys-Val-Pro-Leu-ACC for GrM, […]

[3] = target: T3, GrB (Homo sapiens, UniProt P10144); experiment: GrA substrate selectivity testing on GrB; type: biochemical; settings: substrate 200 μM (Fig 3A) or 67 μM, 18 nM GrB
T3 construct: made in house; host or cells: Pichia pastoris
Excerpt: as §1, §2, §3, §4
(§5) Arg-Phe-Lys-ACC for GrK, Ac-Ile-Glu-Pro-Asp-ACC for GrB, Ac-Lys-Val-Pro-Leu-ACC for GrM,
(§6) Ac-Glu(O-Bzl)-Lys(Ac)-Hyp(Bzl)-Nva-ACC for PR3 and Ac-Arg(NO)2-Glu(Bzl)-Oic-Abu-ACC for hNE.
(§7) Substrates were placed in a 96-well plate at a concentration of 67 µM and treated with optimal
(§8) and emission wavelengths. Data present the average of 2 replicates as adjusted RFU/s.
Figure S3. Detection of active GrA in NK92 cells.
(also on this page, place not known: S K15 hNE) . Ac-Tyr- -Arg(NO)2-Glu(Bzl)-Oic-Abu-ACC ( 89 G rA cell s. reference reference SK15 reference SK15 reference SK15 reference SK15 reference SK15 0 50 100 substrate turnover, %RFU/s PR3GrMGrBGrK hNEGrA SK15 selectivity) […]

[4] = tested on: human neutrophil elastase (hNE); experiment: Selectivity of SK15 substrate toward hNE; type: biochemical; settings: Figure S2: substrate 67 µM, 3.3 nM hNE
Excerpt: as §1, §3, §4, §5, §6, §7, §8
(§9) Figure S3. Detection of active GrA in NK92 cells. […]

[5] = tested on: GrA; experiment: Screening of individual substrates SK7–SK28 with GrA; type: biochemical, human; settings: Figure 2A: substrate 1 μM, 89 nM enzyme (method b64: 67 μM, 583 nM GrA); adjusted RFU/s, average of 2 replicates
Excerpt: Data present the average of 2 replicates as adjusted RFU/s. (B) Comparison of SK7 (blue) and SK15 (red) structures.

[6] = tested on: proteinase 3 (PR3); experiment: Selectivity of SK15 substrate toward PR3; type: biochemical; settings: Figure S2: substrate 67 µM, 3.4 nM PR3
Excerpt: as §1, §3, §4, §5, §6, §7, §8, §9

[7] = tested on: granzyme M (GrM); experiment: Selectivity of SK15 substrate toward GrM; type: biochemical, human; settings: Figure S2: substrate 67 µM, 74 nM GrM
Excerpt: as §1, §3, §4, §5, §6, §7, §8, §9

[8] = GrA 93 nM, assay buffer pH 7.5, 37 °C, ACC fluorescence 355/460 nm

T3 sequence (P10144 21-247): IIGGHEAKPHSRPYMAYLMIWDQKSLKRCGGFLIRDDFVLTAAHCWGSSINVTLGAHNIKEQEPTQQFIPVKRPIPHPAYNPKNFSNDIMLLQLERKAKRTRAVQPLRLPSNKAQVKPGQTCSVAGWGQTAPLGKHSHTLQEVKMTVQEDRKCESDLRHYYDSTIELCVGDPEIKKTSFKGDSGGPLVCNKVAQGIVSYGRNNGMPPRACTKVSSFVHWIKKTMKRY

Ac-[Tic]G[Oic]R-{ACC} (SMILES CC(=O)N1Cc2ccccc2C[C@H]1C(=O)NCC(=O)N1[C@H](C(=O)N[C@@H](CCCNC(=N)N)C(=O)Nc2ccc3c(CC(N)=O)cc(=O)oc3c2)C[C@@H]2CCCC[C@@H]21) [SK15]
kcat [1, 8]: 0.27 ± 0.0029 s⁻¹
kcat/KM [1, 8]: 3100 M^–1 s^–1 and 3100 ± 80 s^–1 M^–1
Km ([1]; GrA 93 nM, substrate 1000–7.81 μM, 50 mM Tris, 100 mM NaCl, 5 mM CaCl2, 0.01% Tween-20, pH 7.5, 37 °C, ACC fluorescence 355/460 nm, Michaelis–Menten nonlinear regression, duplicate): 87.4 ± 1.3 µM
GrA activity against the substrate relative to the reference sequence SK7 ([1]; ratio to SK7): approximately 40 fold
hydrolysis by GrK ([2]; Figure 3A and S2, substrate 200 μM (Fig 3A) or 67 μM (Fig S2), adjusted RFU/s, 2 replicates): 20%
hydrolysis by GrK (in words) ([2]; substrate 200 μM (Fig 3A) or 67 μM): barely hydrolyzed
hydrolysis by GrB (in words) [3]: inactive; also recorded: not recognized
recognition by hNE (in words) [4]: not recognized
hydrolysis of individual substrate by GrA (in words) [5]: most active substrate
recognition by PR3 (in words) [6]: not recognized
recognition by GrM (in words) [7]: not recognized
